Measurements from article PMC4676015, “Variant fatty acid-like molecules Conjugation, novel approaches for extending the stability of therapeutic peptides” (Scientific Reports, 2015).

Biological target: T1, GLP-1 receptor (GLP-1R) (Rattus norvegicus, UniProt P32301)
T1 construct: endogenous in cells; host or cells: rat INS-1 cells
T1 sequence (P32301 22-463): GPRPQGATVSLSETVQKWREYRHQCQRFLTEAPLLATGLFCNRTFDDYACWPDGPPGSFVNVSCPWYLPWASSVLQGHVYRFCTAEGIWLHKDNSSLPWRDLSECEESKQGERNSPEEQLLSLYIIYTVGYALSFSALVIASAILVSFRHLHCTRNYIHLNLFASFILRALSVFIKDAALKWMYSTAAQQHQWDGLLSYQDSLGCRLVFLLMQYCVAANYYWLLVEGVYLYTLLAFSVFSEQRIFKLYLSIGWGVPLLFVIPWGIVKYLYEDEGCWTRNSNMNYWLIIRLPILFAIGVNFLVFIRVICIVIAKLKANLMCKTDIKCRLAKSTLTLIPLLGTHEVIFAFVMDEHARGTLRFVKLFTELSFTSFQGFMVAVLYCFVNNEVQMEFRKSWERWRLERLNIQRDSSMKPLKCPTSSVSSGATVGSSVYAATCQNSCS
Test: GLP-1 receptor binding assay (cellular ELISA)
Method: Cells were rinsed with PBS and fixed with 4% paraformaldehyde (Thermo Scientific) for 10 min at room temperature and quenched for 5 min with 2% glycine in PBS, pH 7.5. […] After a 2 h incubation at 37 °C in a final volume of 100 μl, the excess peptides were washed, and the cells were blocked with 5% BSA (BD Biosciences). […] Colorimetric changes were analyzed by reading the absorbance at 450 nm in a SpectraMax M5 (Molecular Device) microplate reader. The peptide concentration was plotted against UV absorbance, and the Kd was calculated using Origin 7.0 software.

Structure (SMILES) | Kd [nM]
CCCCCCCCNC(=O)CC[C@H](NC(=O)[C@H](C)NC(=O)[C@@H](N)Cc1c[nH]cn1)C(=O)NCC(=O)N[C@H](C(=O)N[C@@H](Cc1ccccc1)C(=O)N[C@H](C(=O)N[C@@H](CO)C(=O)N[C@@H](CC(=O)O)C(=O)N[C@H](C(=O)N[C@@H](CO)C(=O)N[C@@H](CO)C(=O)N[C@@H](Cc1ccc(O)cc1)C(=O)N[C@@H](CC(C)C)C(=O)N[C@@H](CCC(=O)O)C(=O)NCC(=O)N[C@@H](CCC(N)=O)C(=O)N[C@@H](C)C(=O)N[C@@H](C)C(=O)N[C@@H](CCCCN)C(=O)N[C@@H](CCC(=O)O)C(=O)N[C@@H](Cc1ccccc1)C(=O)N[C@H](C(=O)N[C@@H](C)C(=O)N[C@@H](Cc1c[nH]c2ccccc12)C(=O)N[C@@H](CC(C)C)C(=O)N[C@H](C(=O)N[C@@H](CCCCN)C(=O)NCC(=O)N[C@@H](CCCNC(=N)N)C(=O)NCC(=O)O)C(C)C)[C@@H](C)CC)C(C)C)[C@@H](C)O)[C@@H](C)O [compound 7] | 104 ± 3.42
CCCCCCCCCCCCNC(=O)CC[C@H](NC(=O)[C@H](C)NC(=O)[C@@H](N)Cc1c[nH]cn1)C(=O)NCC(=O)N[C@H](C(=O)N[C@@H](Cc1ccccc1)C(=O)N[C@H](C(=O)N[C@@H](CO)C(=O)N[C@@H](CC(=O)O)C(=O)N[C@H](C(=O)N[C@@H](CO)C(=O)N[C@@H](CO)C(=O)N[C@@H](Cc1ccc(O)cc1)C(=O)N[C@@H](CC(C)C)C(=O)N[C@@H](CCC(=O)O)C(=O)NCC(=O)N[C@@H](CCC(N)=O)C(=O)N[C@@H](C)C(=O)N[C@@H](C)C(=O)N[C@@H](CCCCN)C(=O)N[C@@H](CCC(=O)O)C(=O)N[C@@H](Cc1ccccc1)C(=O)N[C@H](C(=O)N[C@@H](C)C(=O)N[C@@H](Cc1c[nH]c2ccccc12)C(=O)N[C@@H](CC(C)C)C(=O)N[C@H](C(=O)N[C@@H](CCCCN)C(=O)NCC(=O)N[C@@H](CCCNC(=N)N)C(=O)NCC(=O)O)C(C)C)[C@@H](C)CC)C(C)C)[C@@H](C)O)[C@@H](C)O [compound 8] | 96.7 ± 2.95
CCCCCCCCCCCCCCCCNC(=O)CC[C@H](NC(=O)[C@H](C)NC(=O)[C@@H](N)Cc1c[nH]cn1)C(=O)NCC(=O)N[C@H](C(=O)N[C@@H](Cc1ccccc1)C(=O)N[C@H](C(=O)N[C@@H](CO)C(=O)N[C@@H](CC(=O)O)C(=O)N[C@H](C(=O)N[C@@H](CO)C(=O)N[C@@H](CO)C(=O)N[C@@H](Cc1ccc(O)cc1)C(=O)N[C@@H](CC(C)C)C(=O)N[C@@H](CCC(=O)O)C(=O)NCC(=O)N[C@@H](CCC(N)=O)C(=O)N[C@@H](C)C(=O)N[C@@H](C)C(=O)N[C@@H](CCCCN)C(=O)N[C@@H](CCC(=O)O)C(=O)N[C@@H](Cc1ccccc1)C(=O)N[C@H](C(=O)N[C@@H](C)C(=O)N[C@@H](Cc1c[nH]c2ccccc12)C(=O)N[C@@H](CC(C)C)C(=O)N[C@H](C(=O)N[C@@H](CCCCN)C(=O)NCC(=O)N[C@@H](CCCNC(=N)N)C(=O)NCC(=O)O)C(C)C)[C@@H](C)CC)C(C)C)[C@@H](C)O)[C@@H](C)O [compound 9] | 99.74 ± 0.92
CCCCCCCCNC(=O)C[C@H](NC(=O)[C@H](CO)NC(=O)[C@@H](NC(=O)[C@H](Cc1ccccc1)NC(=O)[C@@H](NC(=O)CNC(=O)[C@H](CCC(=O)O)NC(=O)[C@H](C)NC(=O)[C@@H](N)Cc1c[nH]cn1)[C@@H](C)O)[C@@H](C)O)C(=O)N[C@H](C(=O)N[C@@H](CO)C(=O)N[C@@H](CO)C(=O)N[C@@H](Cc1ccc(O)cc1)C(=O)N[C@@H](CC(C)C)C(=O)N[C@@H](CCC(=O)O)C(=O)NCC(=O)N[C@@H](CCC(N)=O)C(=O)N[C@@H](C)C(=O)N[C@@H](C)C(=O)N[C@@H](CCCCN)C(=O)N[C@@H](CCC(=O)O)C(=O)N[C@@H](Cc1ccccc1)C(=O)N[C@H](C(=O)N[C@@H](C)C(=O)N[C@@H](Cc1c[nH]c2ccccc12)C(=O)N[C@@H](CC(C)C)C(=O)N[C@H](C(=O)N[C@@H](CCCCN)C(=O)NCC(=O)N[C@@H](CCCNC(=N)N)C(=O)NCC(=O)O)C(C)C)[C@@H](C)CC)C(C)C [compound 10] | 88.3 ± 3.27

The next lines start with the values.

Kd [nM] | Structure (SMILES)
36.2 ± 0.95 | CCCCCCCC(=O)NCCCC[C@H](NC(=O)[C@H](C)NC(=O)[C@H](C)NC(=O)[C@H](CCC(N)=O)NC(=O)CNC(=O)[C@H](CCC(=O)O)NC(=O)[C@H](CC(C)C)NC(=O)[C@H](Cc1ccc(O)cc1)NC(=O)[C@H](CO)NC(=O)[C@H](CO)NC(=O)[C@@H](NC(=O)[C@H](CC(=O)O)NC(=O)[C@H](CO)NC(=O)[C@@H](NC(=O)[C@H](Cc1ccccc1)NC(=O)[C@@H](NC(=O)CNC(=O)[C@H](CCC(=O)O)NC(=O)[C@H](C)NC(=O)[C@@H](N)Cc1c[nH]cn1)[C@@H](C)O)[C@@H](C)O)C(C)C)C(=O)N[C@@H](CCC(=O)O)C(=O)N[C@@H](Cc1ccccc1)C(=O)N[C@H](C(=O)N[C@@H](C)C(=O)N[C@@H](Cc1c[nH]c2ccccc12)C(=O)N[C@@H](CC(C)C)C(=O)N[C@H](C(=O)N[C@@H](CCCCN)C(=O)NCC(=O)N[C@@H](CCCNC(=N)N)C(=O)NCC(=O)O)C(C)C)[C@@H](C)CC [compound 1]
39.9 ± 1.27 | CCCCCCCCCCCC(=O)NCCCC[C@H](NC(=O)[C@H](C)NC(=O)[C@H](C)NC(=O)[C@H](CCC(N)=O)NC(=O)CNC(=O)[C@H](CCC(=O)O)NC(=O)[C@H](CC(C)C)NC(=O)[C@H](Cc1ccc(O)cc1)NC(=O)[C@H](CO)NC(=O)[C@H](CO)NC(=O)[C@@H](NC(=O)[C@H](CC(=O)O)NC(=O)[C@H](CO)NC(=O)[C@@H](NC(=O)[C@H](Cc1ccccc1)NC(=O)[C@@H](NC(=O)CNC(=O)[C@H](CCC(=O)O)NC(=O)[C@H](C)NC(=O)[C@@H](N)Cc1c[nH]cn1)[C@@H](C)O)[C@@H](C)O)C(C)C)C(=O)N[C@@H](CCC(=O)O)C(=O)N[C@@H](Cc1ccccc1)C(=O)N[C@H](C(=O)N[C@@H](C)C(=O)N[C@@H](Cc1c[nH]c2ccccc12)C(=O)N[C@@H](CC(C)C)C(=O)N[C@H](C(=O)N[C@@H](CCCCN)C(=O)NCC(=O)N[C@@H](CCCNC(=N)N)C(=O)NCC(=O)O)C(C)C)[C@@H](C)CC [compound 2]
33.8 ± 1.21 | CCCCCCCCCCCCCCCC(=O)NCCCC[C@H](NC(=O)[C@H](C)NC(=O)[C@H](C)NC(=O)[C@H](CCC(N)=O)NC(=O)CNC(=O)[C@H](CCC(=O)O)NC(=O)[C@H](CC(C)C)NC(=O)[C@H](Cc1ccc(O)cc1)NC(=O)[C@H](CO)NC(=O)[C@H](CO)NC(=O)[C@@H](NC(=O)[C@H](CC(=O)O)NC(=O)[C@H](CO)NC(=O)[C@@H](NC(=O)[C@H](Cc1ccccc1)NC(=O)[C@@H](NC(=O)CNC(=O)[C@H](CCC(=O)O)NC(=O)[C@H](C)NC(=O)[C@@H](N)Cc1c[nH]cn1)[C@@H](C)O)[C@@H](C)O)C(C)C)C(=O)N[C@@H](CCC(=O)O)C(=O)N[C@@H](Cc1ccccc1)C(=O)N[C@H](C(=O)N[C@@H](C)C(=O)N[C@@H](Cc1c[nH]c2ccccc12)C(=O)N[C@@H](CC(C)C)C(=O)N[C@H](C(=O)N[C@@H](CCCCN)C(=O)NCC(=O)N[C@@H](CCCNC(=N)N)C(=O)NCC(=O)O)C(C)C)[C@@H](C)CC [compound 3]
15.4 ± 0.67 | CCCCCCCC(=O)NCCCC[C@H](NC(=O)[C@@H](NC(=O)[C@H](CC(C)C)NC(=O)[C@H](Cc1c[nH]c2ccccc12)NC(=O)[C@H](C)NC(=O)[C@@H](NC(=O)[C@H](Cc1ccccc1)NC(=O)[C@H](CCC(=O)O)NC(=O)[C@H](CCCCN)NC(=O)[C@H](C)NC(=O)[C@H](C)NC(=O)[C@H](CCC(N)=O)NC(=O)CNC(=O)[C@H](CCC(=O)O)NC(=O)[C@H](CC(C)C)NC(=O)[C@H](Cc1ccc(O)cc1)NC(=O)[C@H](CO)NC(=O)[C@H](CO)NC(=O)[C@@H](NC(=O)[C@H](CC(=O)O)NC(=O)[C@H](CO)NC(=O)[C@@H](NC(=O)[C@H](Cc1ccccc1)NC(=O)[C@@H](NC(=O)CNC(=O)[C@H](CCC(=O)O)NC(=O)[C@H](C)NC(=O)[C@@H](N)Cc1c[nH]cn1)[C@@H](C)O)[C@@H](C)O)C(C)C)[C@@H](C)CC)C(C)C)C(=O)NCC(=O)N[C@@H](CCCNC(=N)N)C(=O)NCC(=O)O [compound 4]
14.3 ± 1.1 | CCCCCCCCCCCC(=O)NCCCC[C@H](NC(=O)[C@@H](NC(=O)[C@H](CC(C)C)NC(=O)[C@H](Cc1c[nH]c2ccccc12)NC(=O)[C@H](C)NC(=O)[C@@H](NC(=O)[C@H](Cc1ccccc1)NC(=O)[C@H](CCC(=O)O)NC(=O)[C@H](CCCCN)NC(=O)[C@H](C)NC(=O)[C@H](C)NC(=O)[C@H](CCC(N)=O)NC(=O)CNC(=O)[C@H](CCC(=O)O)NC(=O)[C@H](CC(C)C)NC(=O)[C@H](Cc1ccc(O)cc1)NC(=O)[C@H](CO)NC(=O)[C@H](CO)NC(=O)[C@@H](NC(=O)[C@H](CC(=O)O)NC(=O)[C@H](CO)NC(=O)[C@@H](NC(=O)[C@H](Cc1ccccc1)NC(=O)[C@@H](NC(=O)CNC(=O)[C@H](CCC(=O)O)NC(=O)[C@H](C)NC(=O)[C@@H](N)Cc1c[nH]cn1)[C@@H](C)O)[C@@H](C)O)C(C)C)[C@@H](C)CC)C(C)C)C(=O)NCC(=O)N[C@@H](CCCNC(=N)N)C(=O)NCC(=O)O [compound 5]
